Experiments:
[1] = test system: lung of a mouse model, 90 Gy irradiation; test: Radiation-induced lung tissue damage, H&E staining (Example 1); assay type: in vivo; details: 60 mg/kg i.p. 1 hour before 90 Gy irradiation; 2 weeks after irradiation; compared to untreated group (IR)
Procedure: (§1) Tissue from a mouse was fixed in 10% neutral formalin for one day, and paraffin sections were prepared. The paraffin sections were then reacted for 5 minutes in each of xylene, and 95%, 90%, and 70% ethanol solutions in that order to deparaffinize the paraffin around the tissue. The tissue was then put into hematoxylin for 1 minute to stain the nucleus and washed with running water for 10 minutes, followed by dipping in eosin for 30 seconds to stain the cytoplasm. The tissue was then dipped in 50%, 70%, 90%, and 95% ethanol, and xylene in that order, and a drop of a mounting solution was applied thereto. The tissue was covered with a cover slide and observed with a microscope (Carl Zeiss Vision).
A mouse was exposed to 90 Gy radiation on the thorax in a size of 3 mm. Lung tissue from the mouse model was fixed in 10% neutral formalin, and paraffin sections were prepared. Using the hematoxylin and eosin staining method, inflammatory reactions and fibrosis of the tissue were observed. The cell nuclei were stained in blue and the cytoplasm was stained in pink. One hour before the irradiation, the mouse model received an intraperitoneal injection of 60 mg/kg 2-methoxyestradiol. Two weeks after the irradiation, inflammatory reactions and fibrosis were observed using H&E staining at the site of tissue damage.

[2] = test system: blood vessels of the skin, C57BL/6 mouse, 20 Gy on the thorax; test: Radiation-induced in vivo vascular injury of skin (Example 2); details: compared to untreated group (IR)
Procedure: Tissue from a mouse was fixed in 10% neutral formalin for one day, and paraffin sections were prepared. The paraffin sections were then reacted for 5 minutes in each of xylene, and 95%, 90%, and 70% ethanol solutions in that order to deparaffinize the paraffin around the tissue. For antigen activation, the tissue was immersed in 0.1 M citrate (pH 6.0) and brought to a boil for 30 minutes, followed by reacting with 3% hydrogen peroxide for 15 minutes. Meanwhile, the tissue was then reacted in phosphate based saline buffer (PBS, 0.1% triton x-100 included) including CD31 (abcam, 1:100 dilution) at 4° C. for 16 hours. After washing with PBS, secondary antibodies having biotin conjugated were diluted at 1:200 and incubated at room temperature for 30 minutes. Avidin biotin complex (ABC) was applied and incubated at room temperature for 30 minutes, and 3,3′-DAB(3,3′-diaminobenzidine) was added for color detection. Hematoxylin was used for counterstaining. The tissue was then dipped in 50%, 70%, 90%, and 95% ethanol, and xylene in that order, and a drop of a mounting solution was applied thereto. The tissue was covered with a cover slide and observed with a microscope (Carl Zeiss Vision).
Skin was extracted from the mouse, and vascular changes inside the skin were observed. […]

[3] = test system: skin tissue, C57BL/6 mouse, 20 Gy on the thorax; test: Radiation-induced in vivo skin damage, infiltration of inflammatory cells (Example 3); details: 2 weeks after irradiation, compared to IR
Procedure: as §1
To observe whether inflammatory responses and fibrosis of skin occur during tissue damage induced after radiotherapy, a C57BL/6 mouse was exposed to 20 Gy radiation on the thorax in a size of 7 mm. Skin was extracted from the mouse, and infiltration of inflammatory cells in the skin tissue was observed. The group pre-treated with 2-methoxyestradiol (IR+pre-treatment2Me) received an intraperitoneal injection in an amount of 60 mg/kg 1 hour before the irradiation, and that post-treated with 2-methoxyestradiol (IR+post-treatment2Me) received an intraperitoneal injection in an amount of 60 mg/kg 24 hours after the irradiation.

[4] = test system: Human pulmonary artery endothelial cells (HPAEC); test: Immunofluorescence staining of irradiated HPAECs (Example 4); assay type: cell-based; details: 10 ng/mL, 12 hours before 10 Gy radiation
Procedure: (§2) Human pulmonary artery endothelial cells (HPAEC) bought from Promocell were cultured in a culture chamber at a temperature of 37° C. under a 5% CO2 condition using a medium including various growth factors necessary for growth of the vascular endothelial cell.
(§3) HPAECs were plated in 3.5 cm, 6 cm, and 10 cm culture dishes and cultured in a CO2 incubator at 37° C. so that the cells were 70% to 80% confluent. 2-Methoxyestradiol was selectively pre-treated according to the test groups. 10 Gy gamma rays (^137Cs) (Atomic Energy of Canada, LTd., Canada) were radiated at a dose of 3.81 Gy/min.
HPAECs were cultured on the cover slide, selectively pre-treated with 2-methoxyestradiolin according to test groups, and irradiated. HPAECs were then fixed in 10% neutral formalin for one day, and washed with phosphate buffered saline (PBS) before staining. After blocking with 2% bovine serum albumin (dissolved inPBS) before the first antibody reaction, VE-cadherin, hypoxia-inducible factor 1-alpha (HIF-1α), SMAD, p-SMAD2/3, and α-SMA antibodies, diluted at 1:100, were reacted at 4° C. for 16 hours. After washing with PBS, the second antibodies having fluorescent stains attached were diluted at 1:500 and reacted at 25° C. for 1 hour. The nuclei were stained with a fluorescent stain 4′,6-diamidino-2-phenylindole (DAPI). After washing with PBS, a drop of glycerol was applied to attach the stained cells to the glass slide.
Human pulmonary artery endothelial cells which received 10 Gy radiation were fixed in 10% neutral formalin, and reacted with phalloidin, CA-9, and VE-cadherin antibodies. Then, fluorescent-labeled secondary immunoglobulins were used to stain CA9, phalloidin, and VE-cadherin in red, green, and white, respectively. The cell nuclei were stained in blue using DAPI. The group received 10 Gy radiation 12 hours after treating HPAECs with 10 ng/mL 2-methoxyestradiol.

[5] = test system: pulmonary artery endothelium, C57BL/6 mouse, 16 Gy on the lung; test: Radiation-induced pulmonary fibrosis in mouse, trichrome staining of collagen (Example 5); assay type: in vivo; details: 150 mg/kg i.p. 1 hour before 16 Gy irradiation of the lung; compared to IR; **: P<0.01
Procedure: (§4) Tissue from a mouse was fixed in 10% neutral formalin for one day, and paraffin sections were prepared. The paraffin sections were then reacted for 5 minutes in each of xylene, and 95%, 90%, and 70% ethanol solutions in that order to deparaffinize the paraffin around the tissue for staining. For antigen activation, the tissue was soaked in a 0.1 M citric acid solution (pH 6.0) and boiled.
The tissue was then reacted in Bouin's solution for 1 minute, Weigert's hematoxylin for 10 minutes, phosphotunstic/phosphomolydic acid for 10 minutes, aniline blue for 5 minutes, and 1% acetate for 1 minute in that order. After dehydration, the tissue was sealed with a cover glass, and observed with a confocal microscope.
To observe whether the symptoms of pulmonary fibrosis induced after radiotherapy include pulmonary fibrosis of vascular endothelial cells, a C57BL/6 mouse was exposed to 16 Gy radiation on the lung. The lung was extracted from the mouse, and collagen, a protein appearing on the cross-section of aorta during the fibrosis of pulmonary artery endothelial cell, was detected by trichrome staining. The group treated with 2-methoxyestradiol was intraperitoneally injected in an amount of 150 mg/kg 1 hour before irradiation. […]

[6] = test system: p-SMAD, Smad 2/3, α-SMA in HPAECs; test: Western blot of fibrosis-related proteins in irradiated HPAECs (Example 6); assay type: cell-based, human; details: 12 hours before 10 Gy radiation
Procedure: as §2, §3
After the cultured cells were irradiated, specimens in which the cells were dissolved in a solution of 150 mM sodium chloride, 40 mM Tris-Cl (pH 8.0), 0.1% NP-40 were prepared to observe intracellular proteins. Sodium dodecyl sulfate polyacrylamide gel electrophoresis (SDS-PAGE) was performed on the specimens, followed by Western blot analysis. The proteins separated by electrophoresis were transferred to a nitrocellulose membrane, and the amount of protein expression was analyzed using the immunoblotting method.
In order to observe changes in the expression amount of the proteins related to HPAEC pulmonary fibrosis according to the concentrations of 2-methoxyestradiol (0.5 μM and 1 μM), the cultured HPAECs were pre-treated with 0.5 μM or 1 μM 2-methoxyestradiol and received 10 Gy radiation 12 hours later. Western blot analysis was then performed using p-SMAD, Smad 2/3, and alpha smooth muscle actin (α-SMA) antibodies. To measure a quantitative amount of the protein, Western blot was performed using β-actin antibodies.

[7] = test system: pulmonary artery endothelium, mouse model with lung cancer (mutated p53 and ras), 16 Gy; test: Fibrosis of vascular endothelium after irradiation in mouse model with lung cancer (Example 7); assay type: in vivo; details: 150 mg/kg i.p. 1 hour before 16 Gy irradiation, compared to IR
Procedure: as §1, with “solutions in order to” for “solutions in that order to”, “around the tissue for staining. The tissue” for “around the tissue. The tissue”
as §4
The tissue was then reacted in Bouin's solution for 1 minute, Weigert's hematoxylin for 10 minutes, phosphotunstic/phosphomolydic acid for 10 minutes, aniline blue for 5 minutes, and 1% acetate for 1 minute in that order. […]

[8] = post-treated: 60 mg/kg i.p. 24 hours after 20 Gy irradiation
[9] = pre-treated: 60 mg/kg i.p. 1 hour before 20 Gy irradiation
[10] = 1 μM, decrease in particular at 1 μM

SMILES: COc1cc2c(cc1O)CC[C@@H]1[C@@H]2CC[C@]2(C)[C@@H](O)CC[C@@H]12 [2-methoxyestradiol]
- cell infiltration (inflammatory cells) in lung tissue, H&E staining [1]: significantly reduced
- fibrosis around blood vessels in lung tissue, H&E staining [1]: significantly reduced
- skin vascular injury [2, 8]: significant reduction
- skin vascular injury [2, 9]: significant reduction
- number of infiltrated inflammatory cells inside the skin tissue [3, 8]: significantly reduced
- number of infiltrated inflammatory cells inside the skin tissue [3, 9]: significantly reduced
- CA-9 staining, immunofluorescence [4]: significant decrease
- VE-cadherin (white around the cell membrane), immunofluorescence [4]: significant increase
- phalloidin staining, immunofluorescence [4]: significant decrease
- collagen stained in blue in the aortic wall, trichrome staining [5]: significant decrease
- Smad 2/3 expression, Western blot ([6]; 0.5 μM): relative decrease
- p-SMAD expression, Western blot ([6]; 0.5 μM): relative decrease
- α-SMA expression, Western blot ([6]; 0.5 μM): relative decrease
- Smad 2/3 expression, Western blot [6, 10]: relative decrease
- p-SMAD expression, Western blot [6, 10]: relative decrease
- α-SMA expression, Western blot [6, 10]: relative decrease
- collagen stained in blue around the vascular endothelium, trichrome staining [7]: significant decrease
